Values quoted from earlier work in patent US20200078455A1, “MESOTHELIN VACCINE FOR OVARIAN CANCER PREVENTION” (SRI INTERNATIONAL, priority 2017, published 2020).

Molecule: Oregovomab
- recurrence rate (compared with women who received a placebo): no difference in the recurrence rate
- immune response (women with ovarian cancer): elicit an immune response

B1: Abagovomab (antibody, chains of the INN, looked up, V domains shown)
VH: QVKLQESGAELARPGASVKLSCKASGYTFTNYWMQWVKQRPGQGLDWIGAIYPGDGNTRYTHKFKGKATLTADKSSSTAYMQLSSLASEDSGVYYCARGEGNYAWFAYWGQGTTVTVSS
VL: DIELTQSPASLSASVGETVTITCQASENIYSYLAWHQQKQGKSPQLLVYNAKTLAGGVSSRFSGSGSGTHFSLKIKSLQPEDFGIYYCQHHYGILPTFGGGTKLEIK
notes: ovarian cancer vaccine that has been studied
- immune response (women with ovarian cancer): elicit an immune response
- survival (women with ovarian cancer): not clear that this leads to longer survival
